Counter-ions that a name gives are not always drawn.
Columns and labels:
[1] = Fraction of drug in microparticles and in MCT oil carrier after storage; format: physicochemical
Text: Mixtures ranged from 2% to 10% w/w of the active pharmaceutical ingredient. The mixed powder was transferred to an extruder where the temperature was adjusted according to the chosen polymer. Some polymers needed higher temperatures to produce a melt with good flow properties. The extruder contained twin screws that moved clockwise to produce efficient mixing. The material was extruded through a 1.5 mm orifice, collected, cooled at room temperature, and cut into short strands about 1-2 inches long. These strands were then fed into a 12-tooth rotor mill, followed by a sieving step to produce microparticles of about 20 to 100 microns. The microparticles were collected and stored at 5° C. until further use.
Experimental samples were prepared by dispersing about 50 mg of the microparticles into 0.75 mL of a MCT oil carrier. The samples were stored at 5° C. and 25° C. for two days, two weeks, or one month, at which times representative samples were tested. The fraction of drug that remained in the microparticles and the fraction of drug that partitioned into the MCT oil carrier were determined. Briefly, the samples were centrifuged to separate the microparticles from the MCT oil carrier. Each portion was treated independently to determine the amount of drug it contained. Results are reported on the basis of the percent residing in each independent portion.

[2] = Solubility in MCT oil; format: physicochemical; conditions: oil or lipid
[3] = PLGA copolymer, 1 Month Storage at 5° C.
[4] = PLGA copolymer, 1 Month Storage at 25° C.
[5] = PLGA copolymer, 2 Days Storage at 5° C.
[6] = PLGA copolymer, 2 Days Storage at 25° C.
[7] = polycaprolactone/PLGA copolymer, Two Weeks Storage, 5° C.
[8] = polycaprolactone/PLGA copolymer, Two Weeks Storage, 25° C.

| drug in MCT Carrier [1, 7] [%] | drug in Microparticles [1, 7] [%] | drug in MCT Carrier [1, 8] [%] | drug in Microparticles [1, 8] [%] | Compound | drug in MCT Carrier [1, 3] [%] | drug in Microparticles [1, 3] [%] | drug in MCT Carrier [1, 4] [%] | drug in Microparticles [1, 4] [%] | drug in MCT Carrier [1, 5] [%] | drug in Microparticles [1, 5] [%] | drug in MCT Carrier [1, 6] [%] | drug in Microparticles [1, 6] [%] | solubility [2] [mg/mL] |
| --- | --- | --- | --- | --- | --- | --- | --- | --- | --- | --- | --- | --- | --- |
|  |  |  |  | CN(C)c1ccc(O)c2c1C[C@H]1C[C@H]3[C@H](N(C)C)C(O)=C(C(N)=O)C(=O)[C@@]3(O)C(O)=C1C2=O [minocycline, minocycline HCl] | 0.1 | 99.9 | 0.4 | 99.6 | 0.9 | 99.1 | 0.6 | 99.4 |  |
| 0.0 | 100.0 | 0.0 | 100.0 | CC[C@H](C)[C@H](NC(=O)[C@@H]1CCCN1C(=O)CNC(=O)[C@H](Cc1ccccc1)NC(=O)[C@H](CC(N)=O)NC(=O)[C@H](CC(N)=O)NC(=O)[C@H](CO)NC(=O)[C@H](CO)NC(=O)[C@H](Cc1c[nH]cn1)NC(=O)[C@@H](NC(=O)[C@H](CC(C)C)NC(=O)[C@H](Cc1ccccc1)NC(=O)[C@H](CC(N)=O)NC(=O)[C@H](C)NC(=O)[C@H](CC(C)C)NC(=O)[C@H](CCCNC(=N)N)NC(=O)[C@H](CCC(N)=O)NC(=O)[C@@H](NC(=O)[C@H](C)NC(=O)[C@@H]1CSSC[C@H](NC(=O)[C@@H](N)CCCCN)C(=O)N[C@@H](CC(N)=O)C(=O)N[C@@H]([C@@H](C)O)C(=O)N[C@@H](C)C(=O)N[C@@H]([C@@H](C)O)C(=O)N1)[C@@H](C)O)C(C)C)C(=O)N[C@@H](CC(C)C)C(=O)N1CCC[C@H]1C(=O)N1CCC[C@H]1C(=O)N[C@H](C(=O)N[C@@H](CC(N)=O)C(=O)N[C@H](C(=O)NCC(=O)N[C@@H](CO)C(=O)N[C@@H](CC(N)=O)C(=O)N[C@H](C(=O)N[C@@H](Cc1ccc(O)cc1)C(N)=O)[C@@H](C)O)C(C)C)[C@@H](C)O [pramlintide] | 0.3 | 99.7 | 0.0 | 100.0 | 0.0 | 100.0 | 0.0 | 100.0 |  |
|  |  |  |  | O=C(O)c1ccccc1O [salicylic acid] | 0.1 | 99.9 | 0.2 | 99.8 | 1.1 | 98.9 | 0.9 | 99.1 | > 30 |
|  |  |  |  | O=C([O-])c1ccccc1O.[Na+] [sodium salicylate] | 1.3 | 98.7 | 1.5 | 98.5 | 0.5 | 99.5 | 2.3 | 97.7 |  |
|  |  |  |  | bovine serum albumin | 0.0 | 100.0 | 0.0 | 100.0 | 0.0 | 100.0 | 0.0 | 100.0 |  |
|  |  |  |  | davalintide | 0.6 | 99.4 | 0.0 | 100.0 | 0.2 | 99.8 | 0.0 | 100.0 |  |
|  |  |  |  | insulin | 0.5 | 99.5 | 0.7 |  |  |  |  |  |  |
|  |  |  |  | metreleptin | 0.0 | 100.0 | 0.0 | 100.0 | 0.0 | 100.0 | 0.0 | 100.0 |  |

From US20140220134A1, “METHOD FOR TREATING DIABETES WITH EXTENDED RELEASE FORMULATION OF GLP-1 RECEPTOR AGONISTS” (Astrazeneca Pharamceuticals LP, priority 2011, published 2014)
